Experimental data from the supplement of paper PMC10307832.

Columns and labels:
Experiment in all cases: relative viability (nuclei count vs DMSO), 5 days (fraction); higher = more cells survive
[1] = compound: COC1=CC(c2cc3ccccc3[nH]2)=N/C1=C\c1[nH]c(C)cc1C [Obatoclax] + C[C@]1(O)C[C@@H](c2nc(-c3ccc4ccc(-c5ccccc5)nc4c3)c3c(N)nccn32)C1 [Linsitinib] (partner 1 µM)
Outline: (§1)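 Each reported value is a median over duplicate plates. It expresses relative viability: treated-well nuclei count divided by vehicle-well nuclei count. Lung cancer cell lines in 1536-well plates were dosed by pin tool a day after seeding, alone with one drug or with a fixed anchor-drug dose plus five library-drug doses (not always all listed) in √10 steps, and nuclei were counted after 5 days.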

[2] = compound: CC(C)C[C@H](NC(=O)[C@H](Cc1ccccc1)NC(=O)c1cnccn1)B(O)O [Bortezomib] + Nc1ncn([C@H]2C[C@H](O)[C@@H](CO)O2)c(=O)n1 [Decitabine] (partner 2 µM)
Outline: as §1

[3] = compound: CC(C)C[C@H](NC(=O)[C@H](Cc1ccccc1)NC(=O)c1cnccn1)B(O)O [Bortezomib] + C[C@@H](Oc1cc(-c2cnn(C3CCNCC3)c2)cnc1N)c1c(Cl)ccc(F)c1Cl [Crizotinib] (partner 1 µM)
Outline: as §1

[4] = compound: COC1=CC(c2cc3ccccc3[nH]2)=N/C1=C\c1[nH]c(C)cc1C [Obatoclax] + COc1cccc2cc(-c3nc([C@H]4CC[C@H](C(=O)O)CC4)n4ncnc(N)c34)[nH]c12 [OSI-027] (partner 0.5 µM)
Outline: as §1

Cell Line | relative viability ([1]; first compound 0.01 µM) | relative viability ([1]; first compound 0.03162 µM) | relative viability ([1]; first compound 0.1 µM) | relative viability ([1]; first compound 0.3162 µM) | relative viability ([1]; first compound 1 µM) | relative viability ([2]; first compound 0.0002 µM) | relative viability ([2]; first compound 0.000632 µM) | relative viability ([2]; first compound 0.002 µM) | relative viability ([2]; first compound 0.006325 µM) | relative viability ([2]; first compound 0.02 µM) | relative viability ([3]; first compound 0.0002 µM) | relative viability ([3]; first compound 0.000632 µM) | relative viability ([3]; first compound 0.002 µM) | relative viability ([3]; first compound 0.006325 µM) | relative viability ([3]; first compound 0.02 µM) | relative viability ([4]; first compound 0.01 µM) | relative viability ([4]; first compound 0.03162 µM) | relative viability ([4]; first compound 0.1 µM) | relative viability ([4]; first compound 0.3162 µM) | relative viability ([4]; first compound 1 µM)
NCI-H1651 | 0.915 | 0.961 | 0.91 | 0.432 | 0.271 | 0.659 | 0.732 | 0.619 | 0.665 | 0.172 | 0.805 | 0.837 | 0.816 | 0.778 | 0.141 | 0.628 | 0.712 | 0.804 | 0.428 | 0.252
NCI-H1666 | 0.876 | 0.822 | 0.745 | 0.313 | 0.275 | 0.782 | 0.839 | 0.728 | 0.646 | 0.477 | 0.941 | 1.11 | 0.9 | 0.202 | 0.228 | 0.881 | 0.89 | 0.95 | 0.443 | 0.5
NCI-H1734 | 0.808 | 0.799 | – | 0.728 | 0.749 | 0.552 | 0.503 | 0.462 | 0.12 | 0.0968 | 0.737 | 0.71 | 0.491 | 0.106 | 0.0952 | 0.648 | 0.612 | 0.569 | 0.465 | 0.254
NCI-H1755 | 0.986 | 0.996 | 0.96 | 0.991 | 1.03 | 0.699 | 0.716 | 0.734 | 0.452 | 0.237 | 0.866 | 0.828 | 0.877 | 0.196 | 0.156 | 0.768 | 0.709 | 0.667 | 0.742 | 0.763
NCI-H1792 | 0.667 | 0.502 | – | 0.48 | 0.561 | 0.473 | 0.581 | 0.664 | 0.286 | 0.0625 | 0.893 | 0.974 | 0.952 | 0.933 | 0.729 | 0.793 | 0.716 | – | 0.624 | 0.932
NCI-H1915 | 1.07 | 1.06 | 1.09 | 1.07 | 1.06 | 0.266 | 0.256 | 0.254 | 0.14 | 0.059 | 0.877 | 0.909 | 0.694 | 0.435 | 0.0428 | 0.613 | 0.585 | 0.584 | 0.604 | 0.546
NCI-H1944 | 1.1 | 1.2 | 1.27 | 1.19 | 1.3 | 0.414 | 0.429 | 0.461 | 0.402 | 0.248 | 1.06 | 1.04 | 0.899 | 1.21 | 0.142 | 0.457 | 0.383 | 0.381 | 0.415 | 0.448
NCI-H1975 | 0.988 | 0.989 | 0.99 | 0.939 | 0.971 | 0.411 | 0.371 | 0.176 | 0.126 | 0.115 | 0.944 | 0.883 | 0.192 | 0.128 | 0.127 | 0.801 | 0.665 | – | 0.511 | 0.177
NCI-H1993 | 0.754 | 0.772 | 0.712 | 0.737 | 0.623 | 0.634 | 0.717 | 0.622 | 0.319 | 0.374 | 0.876 | 0.974 | 0.847 | 0.342 | 0.506 | 0.501 | 0.551 | 0.623 | 0.526 | 0.528
NCI-H2009 | 1.12 | 1.2 | 1.19 | 1.02 | 0.262 | 0.392 | 0.431 | 0.388 | 0.101 | 0.0757 | 0.992 | 1.06 | 0.956 | 0.329 | 0.0389 | 0.582 | 0.608 | 0.535 | 0.229 | 0.247
NCI-H2023 | 0.624 | 0.648 | 0.635 | 0.608 | 0.279 | 0.216 | 0.236 | 0.245 | 0.122 | 0.0571 | 0.606 | 0.718 | 0.598 | 0.146 | 0.0674 | 0.42 | 0.381 | 0.488 | 0.226 | 0.102
NCI-H2085 | 0.969 | 0.85 | 0.856 | 0.602 | 0.523 | 0.588 | 0.544 | 0.593 | 0.298 | 0.246 | 0.814 | 0.988 | 0.757 | 0.188 | 0.217 | 0.818 | 0.917 | 0.587 | 0.506 | 0.359
NCI-H2087 | 0.949 | 0.773 | 0.748 | 0.429 | 0.264 | 0.233 | 0.265 | 0.141 | 0.0621 | 0.0401 | 0.912 | 0.911 | 0.74 | 0.0857 | 0.072 | 0.768 | 0.525 | 0.529 | 0.333 | 0.159
NCI-H2126 | 0.684 | 0.713 | 0.722 | 0.712 | 0.705 | 0.603 | 0.597 | 0.535 | 0.552 | 0.197 | 0.991 | 0.993 | 1.08 | 0.957 | 0.195 | 0.766 | 0.546 | 0.878 | 0.651 | 0.736
NCI-H2347 | 0.915 | 0.91 | 0.787 | 0.91 | 0.909 | 0.631 | 0.601 | 0.648 | 0.466 | 0.429 | 0.657 | 0.582 | 0.348 | 0.291 | 0.298 | 0.461 | 0.408 | – | 0.467 | 0.412
NCI-H2405 | 0.936 | 1.11 | – | 0.866 | 0.87 | 0.716 | 0.692 | 0.545 | 0.212 | 0.181 | 0.88 | 0.83 | 0.834 | 0.24 | 0.15 | 0.65 | 0.688 | – | 0.643 | 0.727
